For the assay, the system named is arv1D cells. The assay can be described thus: Polyene (nystatin) sensitivity of arv1 deletion yeast, growth on plates. The conditions noted are these: for polyene sensitivity of yeast strains deleted for the ARV1 gene (arv1Δ): concentration not given. The class given is cell-based, Saccharomyces cerevisiae. How it is done: FIGS. 1A-1C arv1 mutant phenotypes. FIG. 1A, Temperature and nystatin sensitivity. 5-fold dilutions of cells were grown as indicated for three days on YEPD +/−5 μg/ml nystatin (10 mg/ml in propylene glycol). FIG. 1B, Characterization of sterol levels. Cells were labeled with [^3H]acetate and lipids extracted and analyzed by TLC. Data from three independent assays of two strains of each genotype is expressed as mean ratio over wild-type (±SEM; statistical significance by paired t-tests, *p<0.05 or **p<0.01 compared to wild-type). Hatched bars wild-type, gray bars=arv1D. FIG. 1C, Subcellular sterol accumulation. Cell membrane preparations were subjected to subcellular fractionation. Lipid composition is presented as ratio of [^3H]acetate in sterol and [^14C]oleate in phospholipids (top panels). Hatched bars=wild-type, gray bars=arv1D. Note scale differences between the upper panels. Fractions were characterized with specific antibodies against the plasma membrane ATPase (Pma1p, provided by Amy Chang), and 100 kDa subunit of integral vacuolar membrane H^+ATPase (Vph1p, Molecular Probes). Bottom panels show densitometry analysis of western blots expressed as percentage of total arbitrary units (Pma1p; closed boxes, Vph1p; open triangles). The integral ER membrane protein, dolichol phosphate mannose synthase cofractionated with Vph1p.
Mutations in sterol trafficking genes may alter membrane sterol levels. arv1D cells are sensitive to nystatin (FIG. 1a), a polyene antibiotic that disrupts membranes in part by interaction with sterols^10. Nystatin partitioning into membranes is sensitive to both sterol organization and levels^10. […] Iodine staining of sterol mass following extraction and thin layer chromatography (TLC) analysis reflected these differences (not shown).

For `C[C@@H]1[C@H](O)[C@@H](C)/C=C/C=C/C=C/C=C/C=C/C=C/C=C/[C@H](O[C@@H]2O[C@H](C)[C@@H](O)[C@H](N)[C@@H]2O)C[C@@H]2O[C@](O)(C[C@@H](O)C[C@@H](O)[C@H](O)CC[C@@H](O)C[C@@H](O)CC(=O)O[C@H]1C)C[C@H](O)[C@H]2C(=O)O` [amphotericin B], the “polyene sensitivity of yeast strains deleted for the ARV1 gene (arv1Δ)” value (shortened to “polyene sensitivity … (arv1Δ)”) is “sensitive”.

With `CCCCC[C@@H](O)[C@H]1C(=O)O[C@H](C)[C@@H](O)/C=C/C=C/C=C/C=C/C=C(\C)[C@@H](O)C[C@H](O)C[C@H](O)C[C@H](O)C[C@H](O)C[C@H](O)C[C@@H]1O` [filipin], the “polyene sensitivity … (arv1Δ)” value was “sensitive”.

For the molecule `C[C@@H]1[C@H](O)[C@@H](C)/C=C/C=C/CC/C=C/C=C/C=C/C=C/C(O[C@H]2O[C@H](C)[C@@H](O)[C@H](N)[C@@H]2O)CC2O[C@](O)(CC(O)C(O)CCC(O)CC(O)CC(O)CC(=O)O[C@H]1C)CC(O)C2C(=O)O` (stereo partly shown) [nystatin], the “polyene sensitivity … (arv1Δ)” value is “sensitive”. For the same molecule, the “sensitivity of arv1D cells to nystatin (growth, FIG. 1a)” value (5-fold dilutions of cells grown three days on YEPD +/- 5 μg/ml nystatin, compared with wild-type) is recorded as “sensitive”.

The record behind these values is US6566512B1, “ARV1, a protein involved in sterol uptake and sterol homeostasis in the budding yeast, S-cerevisiae, and a functional human ARV1” (The Trustees of Columbia University in the City of New York, priority 2000, dated 2003).
